Assay results published in ChEMBL document CHEMBL1201862, “PubChem BioAssay data set” (2004).
Activity calls are given as the source filed them.

What was measured:
[1] = tested on: H9c2; assay: cells; assay type: functional, cell-based; conditions: Rattus norvegicus, H9c2, Myocardium;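 further: confirmatory concentration-response retest of ultra-high-throughput screening hits for modulation of myocardial damage; cell death induced by hydrogen peroxide oxidative stress; compound pretreatment for 60 min then peroxide exposure for 2 h; potency is for protecting the cells against peroxide damage rather than for killing them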
[2] = A Cell Based Secondary Assay To Explore Cytotoxicity of Compounds that Sensitize Mycobacterium Tuberculosis to Beta-Lactam Antibiotics.; assay type: functional
[3] = biological target: Voltage-dependent T-type calcium channel subunit alpha-1H (Homo sapiens, UniProt O95180); assay type: functional;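 further: channel activity triggered by adding a high calcium stimulation buffer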
[4] = biological target: Cytochrome P450 2C19 (Homo sapiens, UniProt P33261); assay: Cytochrome panel assay with activity outcomes. Panel member name: p450-cyp2c19 Compounds with AC50 equal or less than 10 uM are considered active; assay type: functional; conditions: read-out: AC50
[5] = biological target: T1, Cytochrome P450 1A2 (Homo sapiens, UniProt P05177);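 further: PubChem cytochrome P450 panel assay, CYP1A2 panel member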
T1 sequence (P05177 whole entry): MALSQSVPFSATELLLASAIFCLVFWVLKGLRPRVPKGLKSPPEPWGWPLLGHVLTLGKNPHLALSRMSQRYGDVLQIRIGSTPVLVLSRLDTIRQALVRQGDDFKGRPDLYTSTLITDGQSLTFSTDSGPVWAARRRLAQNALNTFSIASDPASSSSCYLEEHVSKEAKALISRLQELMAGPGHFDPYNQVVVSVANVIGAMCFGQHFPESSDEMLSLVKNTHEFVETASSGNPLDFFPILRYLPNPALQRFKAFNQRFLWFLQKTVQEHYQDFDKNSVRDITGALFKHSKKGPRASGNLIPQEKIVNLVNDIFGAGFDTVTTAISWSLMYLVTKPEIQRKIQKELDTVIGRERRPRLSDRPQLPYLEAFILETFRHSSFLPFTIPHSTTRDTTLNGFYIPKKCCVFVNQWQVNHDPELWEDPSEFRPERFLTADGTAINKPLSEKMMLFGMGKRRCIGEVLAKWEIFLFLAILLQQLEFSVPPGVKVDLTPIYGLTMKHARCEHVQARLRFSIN

[6] = biological target: Cytochrome P450 2D6 (Homo sapiens, UniProt P10635);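 further: CYP2D6 member of a cytochrome P450 panel assay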
[7] = biological target: Steroidogenic factor 1 (Homo sapiens, UniProt Q13285); assay: Counterscreen for inverse agonists of the liver receptor homolog-1 (LRH-1; NR5A2): Luminescence-based cell-based high throughput dose response assay to identify inverse agonists of the Steroidogenic Factor 1 Nuclear Receptor (SF1; NR5A1).; assay type: functional
[8] = biological target: Nuclear receptor subfamily 5 group A member 2 (Homo sapiens, UniProt O00482); assay type: functional, cell-based;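 further: HEK293T cells transfected with LRH-1 and a StAR promoter luciferase reporter; potency for inhibitors that lower LRH-1 driven reporter light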
[9] = nonselective StAR promoter luciferase inhibitors – cell-based, luminescence, luciferase reporter, counter-screen for LRH-1 inverse agonist project, dose response (AID 651969); assay type: functional
[10] = cells; assay type: functional, cell-based
[11] = cells; assay type: functional, cell-based; remark: listed apart in the source
[12] = biological target: T2, Histone-lysine N-methyltransferase NSD2 (Homo sapiens, UniProt O96028); assay type: biochemical
T2 sequence (O96028 whole entry): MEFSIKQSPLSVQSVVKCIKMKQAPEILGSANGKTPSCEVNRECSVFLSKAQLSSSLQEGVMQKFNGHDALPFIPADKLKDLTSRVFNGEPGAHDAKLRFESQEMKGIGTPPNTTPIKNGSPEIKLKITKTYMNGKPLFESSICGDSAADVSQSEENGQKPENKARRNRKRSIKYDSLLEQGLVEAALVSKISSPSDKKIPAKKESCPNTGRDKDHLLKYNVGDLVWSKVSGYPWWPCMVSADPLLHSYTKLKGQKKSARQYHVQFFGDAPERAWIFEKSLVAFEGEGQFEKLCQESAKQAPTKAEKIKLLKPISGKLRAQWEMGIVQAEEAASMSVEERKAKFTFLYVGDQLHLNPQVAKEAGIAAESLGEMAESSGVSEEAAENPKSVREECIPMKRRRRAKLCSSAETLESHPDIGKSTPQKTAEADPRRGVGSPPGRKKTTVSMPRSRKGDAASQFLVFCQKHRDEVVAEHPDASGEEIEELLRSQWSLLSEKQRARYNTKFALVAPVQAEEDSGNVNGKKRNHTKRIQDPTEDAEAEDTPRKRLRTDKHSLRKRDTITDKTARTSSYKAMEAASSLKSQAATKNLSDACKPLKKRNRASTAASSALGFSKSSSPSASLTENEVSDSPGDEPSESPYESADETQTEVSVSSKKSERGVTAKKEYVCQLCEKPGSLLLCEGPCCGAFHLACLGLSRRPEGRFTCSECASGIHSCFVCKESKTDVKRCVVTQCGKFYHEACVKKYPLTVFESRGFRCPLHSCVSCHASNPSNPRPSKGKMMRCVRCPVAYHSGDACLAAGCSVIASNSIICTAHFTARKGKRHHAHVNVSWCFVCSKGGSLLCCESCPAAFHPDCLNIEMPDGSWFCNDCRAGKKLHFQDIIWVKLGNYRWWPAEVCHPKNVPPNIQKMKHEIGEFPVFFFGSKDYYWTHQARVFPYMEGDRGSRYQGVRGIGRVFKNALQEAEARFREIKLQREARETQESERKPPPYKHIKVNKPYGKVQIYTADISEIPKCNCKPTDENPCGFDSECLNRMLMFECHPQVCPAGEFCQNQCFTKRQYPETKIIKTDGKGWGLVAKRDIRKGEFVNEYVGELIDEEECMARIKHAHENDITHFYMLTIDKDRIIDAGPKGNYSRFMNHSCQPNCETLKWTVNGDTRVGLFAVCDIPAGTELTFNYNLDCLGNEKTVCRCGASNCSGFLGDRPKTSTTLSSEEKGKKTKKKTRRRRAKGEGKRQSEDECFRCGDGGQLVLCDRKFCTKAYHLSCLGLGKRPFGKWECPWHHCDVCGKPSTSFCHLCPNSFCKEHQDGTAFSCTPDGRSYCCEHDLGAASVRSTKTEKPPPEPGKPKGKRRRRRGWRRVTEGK

[13] = tested on: Streptococcus; assay: GAS UMAA2166 growth inhibition – luminescence, BacTiterGlo, counter-screen for streptokinase expression inhibitor project, dose response (AID 1915); assay type: functional, organism-based;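 further: potency for reduction of bacterial viability or growth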
[14] = biological target: T3, Streptokinase A (Streptococcus pyogenes serotype M1, UniProt P10520); assay: viability-normalized secreted streptokinase activity reduction – plasminogen activation absorbance, OD405, dose response (AID 1914); assay type: functional, Streptococcus pyogenes M1 GAS;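 further: secreted streptokinase activity via plasminogen activation per viability signal from cell pellet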
T3 sequence (P10520 whole entry): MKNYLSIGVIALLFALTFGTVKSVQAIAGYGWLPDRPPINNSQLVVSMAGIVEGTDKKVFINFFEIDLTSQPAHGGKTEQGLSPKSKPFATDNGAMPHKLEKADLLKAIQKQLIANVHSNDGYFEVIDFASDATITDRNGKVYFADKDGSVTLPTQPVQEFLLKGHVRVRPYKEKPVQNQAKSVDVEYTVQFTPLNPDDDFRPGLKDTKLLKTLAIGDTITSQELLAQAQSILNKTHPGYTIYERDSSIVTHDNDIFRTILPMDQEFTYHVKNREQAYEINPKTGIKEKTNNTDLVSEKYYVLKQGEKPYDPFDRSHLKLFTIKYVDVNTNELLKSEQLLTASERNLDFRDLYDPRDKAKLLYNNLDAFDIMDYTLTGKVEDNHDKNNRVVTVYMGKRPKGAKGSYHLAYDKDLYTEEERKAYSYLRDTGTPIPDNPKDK

[15] = HIV-1 AD8 envelope cell-cell fusion blockers – cherry-pick, dose response (AID 652062); assay type: functional, cell-based;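 further: luciferase signal from cell-cell fusion driven by HIV-1 clade B AD8 Env; potency is for inhibitors of fusion seen as a drop in luminescence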
[16] = A549 cell cytotoxicity, dose response, cytotoxicity control, plate reader, cherry-pick, antagonist series (AID 743412); assay type: functional, cell-based
[17] = intracellular Trypanosoma cruzi inhibitors in host cells – cell-based, plate reader, cherry-pick samples, set 3, dose response (AID 651818); assay type: functional;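 further: compounds incubated with infected cells for about four days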
[18] = blockers of HIV-1 envelope-mediated cell-cell fusion – cherry-pick, dose response (AID 652057); assay type: functional, cell-based
[19] = blockers of HIV-1 ZM109 envelope-driven cell-cell fusion – HeLa effector, CEM target cells, luciferase, cherry-pick, dose response (AID 652058); assay type: functional, cell-based;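 further: luciferase signal from HIV-1 Env mediated cell-cell fusion of effector and target cells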
[20] = biological target: Nonstructural protein 1 (Influenza A virus, UniProt Q194T2); assay type: functional, Influenza A virus (A/California/07/2009(H1N1))
[21] = growth inhibition of yeast DHODH-expressing 3D7 parasites – SYBR Green, dry powder samples, dose response (AID 1159570); assay type: functional, cell-based;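 further: parasite growth measured after 72 hours of compound exposure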
[22] = P. falciparum Dd2 growth inhibitors, dose response, SYBR Green, cherry-picked samples (AID 1159567); assay type: functional, cell-based
[23] = Dd2 malaria parasite growth inhibition potency – SYBR Green, dry powder samples, dose response (AID 1159566); assay type: functional, cell-based;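 further: potency for growth inhibition with lower SYBR green DNA signal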
[24] = growth inhibition of PfATP4-mutant resistant parasites – NITD609-resistant line, SYBR Green, dry powder, dose response (AID 1159571); assay type: functional, cell-based;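 further: parasites synchronized at ring stage by sorbitol before testing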

Nuclear receptor subfamily 5 group A member 2, sequence (O00482 whole entry): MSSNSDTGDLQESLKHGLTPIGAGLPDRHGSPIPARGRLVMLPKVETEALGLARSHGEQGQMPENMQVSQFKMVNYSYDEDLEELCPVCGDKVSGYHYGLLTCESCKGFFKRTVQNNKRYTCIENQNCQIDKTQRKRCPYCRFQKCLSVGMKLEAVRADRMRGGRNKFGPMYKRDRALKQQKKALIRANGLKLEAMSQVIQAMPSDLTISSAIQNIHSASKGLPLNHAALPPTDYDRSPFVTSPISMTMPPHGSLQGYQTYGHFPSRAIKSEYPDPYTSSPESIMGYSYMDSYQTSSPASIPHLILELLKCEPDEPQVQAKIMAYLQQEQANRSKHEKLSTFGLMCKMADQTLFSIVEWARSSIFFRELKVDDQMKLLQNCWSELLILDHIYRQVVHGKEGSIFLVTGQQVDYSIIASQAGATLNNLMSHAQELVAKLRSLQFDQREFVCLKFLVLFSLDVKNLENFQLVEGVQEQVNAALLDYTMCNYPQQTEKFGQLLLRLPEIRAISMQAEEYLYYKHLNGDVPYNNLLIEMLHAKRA
Steroidogenic factor 1, sequence (Q13285 whole entry): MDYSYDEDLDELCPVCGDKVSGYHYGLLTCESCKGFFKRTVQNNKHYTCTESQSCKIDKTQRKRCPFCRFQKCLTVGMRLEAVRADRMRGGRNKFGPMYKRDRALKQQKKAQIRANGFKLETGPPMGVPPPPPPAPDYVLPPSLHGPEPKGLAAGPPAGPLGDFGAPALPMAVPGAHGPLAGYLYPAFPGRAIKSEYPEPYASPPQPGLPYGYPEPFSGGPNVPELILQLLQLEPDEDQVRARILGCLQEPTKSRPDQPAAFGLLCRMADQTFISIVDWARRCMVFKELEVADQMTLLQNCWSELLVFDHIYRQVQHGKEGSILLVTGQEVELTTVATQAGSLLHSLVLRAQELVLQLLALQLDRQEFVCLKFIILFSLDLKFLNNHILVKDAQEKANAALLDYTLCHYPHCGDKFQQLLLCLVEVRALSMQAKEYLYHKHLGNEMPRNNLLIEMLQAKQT
Voltage-dependent T-type calcium channel subunit alpha-1H, sequence (O95180 whole entry): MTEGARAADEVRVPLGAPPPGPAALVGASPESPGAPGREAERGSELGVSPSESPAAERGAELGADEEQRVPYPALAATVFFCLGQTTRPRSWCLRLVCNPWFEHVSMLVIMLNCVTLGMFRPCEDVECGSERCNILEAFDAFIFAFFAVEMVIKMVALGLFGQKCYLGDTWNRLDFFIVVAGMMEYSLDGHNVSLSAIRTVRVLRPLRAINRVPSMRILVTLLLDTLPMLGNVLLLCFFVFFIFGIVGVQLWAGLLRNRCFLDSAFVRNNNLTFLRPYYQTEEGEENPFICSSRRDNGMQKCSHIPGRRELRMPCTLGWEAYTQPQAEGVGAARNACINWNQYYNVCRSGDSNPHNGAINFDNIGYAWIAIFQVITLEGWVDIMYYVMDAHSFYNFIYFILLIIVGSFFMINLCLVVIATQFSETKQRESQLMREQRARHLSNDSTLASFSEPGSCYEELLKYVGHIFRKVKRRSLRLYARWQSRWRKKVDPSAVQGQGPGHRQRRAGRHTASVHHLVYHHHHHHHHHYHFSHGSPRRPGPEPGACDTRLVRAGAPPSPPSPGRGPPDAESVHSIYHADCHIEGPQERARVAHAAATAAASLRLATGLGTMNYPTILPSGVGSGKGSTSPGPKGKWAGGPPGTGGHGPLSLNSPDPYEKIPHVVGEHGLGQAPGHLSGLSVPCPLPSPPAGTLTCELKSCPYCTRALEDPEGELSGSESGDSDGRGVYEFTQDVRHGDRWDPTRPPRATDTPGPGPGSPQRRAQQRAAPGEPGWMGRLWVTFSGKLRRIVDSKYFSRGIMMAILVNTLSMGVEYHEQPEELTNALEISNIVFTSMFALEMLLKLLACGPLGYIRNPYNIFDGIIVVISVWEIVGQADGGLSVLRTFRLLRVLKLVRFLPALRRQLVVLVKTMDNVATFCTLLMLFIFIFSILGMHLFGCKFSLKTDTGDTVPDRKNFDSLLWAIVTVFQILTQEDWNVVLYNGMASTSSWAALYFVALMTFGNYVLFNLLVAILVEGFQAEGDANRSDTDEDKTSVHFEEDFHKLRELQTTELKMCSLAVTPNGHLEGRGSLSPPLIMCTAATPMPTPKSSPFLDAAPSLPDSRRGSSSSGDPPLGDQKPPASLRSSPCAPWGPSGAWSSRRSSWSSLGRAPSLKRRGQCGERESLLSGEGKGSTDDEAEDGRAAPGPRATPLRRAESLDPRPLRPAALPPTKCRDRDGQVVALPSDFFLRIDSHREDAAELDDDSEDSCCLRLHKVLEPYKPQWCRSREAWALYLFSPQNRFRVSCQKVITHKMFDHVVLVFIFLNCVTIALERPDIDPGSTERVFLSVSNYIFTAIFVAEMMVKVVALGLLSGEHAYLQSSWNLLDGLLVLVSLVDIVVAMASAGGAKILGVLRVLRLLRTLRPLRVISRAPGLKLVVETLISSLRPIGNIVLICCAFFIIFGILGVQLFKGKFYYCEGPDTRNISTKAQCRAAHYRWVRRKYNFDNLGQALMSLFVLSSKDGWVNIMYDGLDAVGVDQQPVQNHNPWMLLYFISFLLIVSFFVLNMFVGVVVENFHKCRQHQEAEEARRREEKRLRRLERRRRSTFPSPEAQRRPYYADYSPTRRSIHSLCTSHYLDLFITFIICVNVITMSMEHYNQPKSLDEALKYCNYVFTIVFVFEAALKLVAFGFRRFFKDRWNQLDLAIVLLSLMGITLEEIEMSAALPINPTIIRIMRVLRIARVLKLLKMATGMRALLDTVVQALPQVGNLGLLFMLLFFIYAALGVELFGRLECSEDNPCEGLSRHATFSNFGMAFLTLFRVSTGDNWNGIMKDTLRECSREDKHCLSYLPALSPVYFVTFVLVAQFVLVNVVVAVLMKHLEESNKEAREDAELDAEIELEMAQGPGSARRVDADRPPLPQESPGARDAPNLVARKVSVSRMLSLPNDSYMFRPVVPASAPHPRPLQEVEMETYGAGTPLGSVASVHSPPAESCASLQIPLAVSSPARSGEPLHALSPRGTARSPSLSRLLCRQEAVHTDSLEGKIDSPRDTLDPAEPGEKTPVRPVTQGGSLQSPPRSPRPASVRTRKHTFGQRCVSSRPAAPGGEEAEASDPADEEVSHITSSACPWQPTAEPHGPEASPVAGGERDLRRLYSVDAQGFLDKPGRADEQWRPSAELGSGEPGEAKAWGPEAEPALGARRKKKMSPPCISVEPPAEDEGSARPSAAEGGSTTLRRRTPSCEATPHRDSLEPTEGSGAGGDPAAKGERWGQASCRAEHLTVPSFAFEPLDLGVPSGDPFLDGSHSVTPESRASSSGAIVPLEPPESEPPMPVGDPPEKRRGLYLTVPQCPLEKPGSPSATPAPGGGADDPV
Cytochrome P450 2C19, sequence (P33261 whole entry): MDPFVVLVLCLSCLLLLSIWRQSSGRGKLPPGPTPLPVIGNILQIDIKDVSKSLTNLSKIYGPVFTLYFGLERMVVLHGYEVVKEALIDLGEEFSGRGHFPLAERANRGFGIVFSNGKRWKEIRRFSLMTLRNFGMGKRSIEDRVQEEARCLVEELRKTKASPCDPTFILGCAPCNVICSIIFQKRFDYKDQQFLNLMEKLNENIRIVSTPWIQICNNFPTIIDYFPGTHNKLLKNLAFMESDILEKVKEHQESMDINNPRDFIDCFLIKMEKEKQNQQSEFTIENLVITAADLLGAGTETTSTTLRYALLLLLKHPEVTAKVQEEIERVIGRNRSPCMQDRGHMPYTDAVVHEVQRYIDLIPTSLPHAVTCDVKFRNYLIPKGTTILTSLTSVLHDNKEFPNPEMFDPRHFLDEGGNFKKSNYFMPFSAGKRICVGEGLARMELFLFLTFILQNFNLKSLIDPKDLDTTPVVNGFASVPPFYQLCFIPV
Nonstructural protein 1, sequence (Q194T2 whole entry): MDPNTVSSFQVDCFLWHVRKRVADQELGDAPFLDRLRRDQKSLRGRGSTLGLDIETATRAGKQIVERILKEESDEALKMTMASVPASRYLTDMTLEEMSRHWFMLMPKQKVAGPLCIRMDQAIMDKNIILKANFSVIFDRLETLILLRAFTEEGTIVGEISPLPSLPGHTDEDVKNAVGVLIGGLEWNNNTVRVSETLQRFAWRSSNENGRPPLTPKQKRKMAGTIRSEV
Cytochrome P450 2D6, sequence (P10635 whole entry): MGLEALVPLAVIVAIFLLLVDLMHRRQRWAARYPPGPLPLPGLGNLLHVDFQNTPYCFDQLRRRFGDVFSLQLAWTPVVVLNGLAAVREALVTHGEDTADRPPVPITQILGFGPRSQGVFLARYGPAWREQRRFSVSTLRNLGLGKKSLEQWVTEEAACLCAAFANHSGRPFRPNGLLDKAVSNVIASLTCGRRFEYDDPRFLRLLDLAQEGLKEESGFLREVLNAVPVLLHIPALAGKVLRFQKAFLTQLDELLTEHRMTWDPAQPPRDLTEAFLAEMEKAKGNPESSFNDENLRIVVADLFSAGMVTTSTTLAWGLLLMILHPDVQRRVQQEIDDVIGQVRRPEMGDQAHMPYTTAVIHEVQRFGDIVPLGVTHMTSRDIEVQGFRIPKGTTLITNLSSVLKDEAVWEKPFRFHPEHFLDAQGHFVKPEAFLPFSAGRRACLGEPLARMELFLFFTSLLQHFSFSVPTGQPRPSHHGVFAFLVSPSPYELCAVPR

For `c1ccc(-c2oc3ncnc(NCCN4CCOCC4)c3c2-c2ccccc2)cc1`, the IC50 [1] was > 79 µM (inactive) and the CC50 [2] was > 40 µM (active).
For `Cc1ccc(S(=O)(=O)NC(=O)c2ccc(-c3ccc(-c4ccccc4)cc3)o2)c(C)c1`, the EC50 [3] was 3.33 µM (active).
With `COC(=O)[C@@]1(Cc2ccc(F)cc2)[C@H]2c3cc(C(=O)N(C)C)n(Cc4ccc(OC)c(OC)c4)c3C[C@H]2CN1C(=O)c1ccccc1` the AC50 [4] was 39.8 µM (inconclusive), the AC50 [5] was 31.6 µM (inconclusive) and the AC50 [6] was 39.8 µM (inconclusive). For the same molecule, the CC50 [2] was > 40 µM (active).
With `CCCOc1ccc(NC(=O)CC2C(=O)N(C)C(=S)N2Cc2ccc3c(c2)OCO3)cc1` (stereo not drawn) the IC50 [7] was 2.03 µM (active), the IC50 [8] was 1.67 µM (active) and the IC50 [9] was 35.9 µM (inactive).
In the case of `Cc1cccc(N2CCN(CC(=O)Nc3nccs3)CC2)c1C`, the EC50 [3] was 6.29 µM (active).
In the case of `Nc1nc(SCC(=O)N2CCCC2)nc(O)c1-c1ccccc1`, the EC50 [10] was > 350 µM (not active) and the EC50 [11] was > 350 µM (not active).
In the case of `Nc1c(C(=O)OCC2CCCO2)c2nc3ccccc3nc2n1C1CCCCC1` (stereo not drawn), the AC50 [12] was 10 µM (active).
With `FC(F)Oc1ccccc1C1CC(c2ccc(Br)s2)Nc2ncnn21` (stereo not drawn) the EC50 [13] was > 150 µM (not active), the EC50 [14] was > 150 µM (not active) and the CC50 [2] was > 40 µM (active).
In the case of `O=C(COC(=O)CCN1C(=O)C2CC=CCC2C1=O)NCCc1ccccc1` (stereo not drawn), the IC50 [7] was 25.8 µM (inactive), the IC50 [8] was 38 µM (inactive) and the IC50 [9] was 35.9 µM (inactive).
For `O=S(=O)(c1cccc(S(=O)(=O)N2CCC(Cc3ccccc3)CC2)c1)N1CCOCC1`, the EC50 [3] was 8.09 µM (active).
In the case of `COc1cc(C(=O)Nc2sc(C)c(C)c2C(=O)O)cc(OC)c1OC`, the EC50 [10] was > 350 µM (not active) and the EC50 [11] was > 350 µM (not active).
With `Cc1ccc(-n2nnnc2-c2cnn(-c3ccc(F)cc3)c2C(F)(F)F)cc1` the AC50 [15] was 33.9 µM (active).
In the case of `CCOC(=O)c1c(C)nc2sc(C(=O)Nc3ccccc3)c(N)c2c1-c1ccc(OC)cc1`, the CC50 [2] was 3.99 µM (active).
With `O=C(Nc1ccc(N2CCOCC2)c(S(=O)(=O)Nc2ccccc2Cl)c1)c1ccc(F)cc1` the AC50 [16] was > 52 µM (inactive).
With `COc1ccc(CCNC(=O)CSc2nn3c(=O)c(C)nnc3s2)cc1OC` the IC50 [7] was 12 µM (inactive), the IC50 [8] was 35.9 µM (inactive) and the IC50 [9] was 35.9 µM (inactive).
In the case of `CC1(C)CN(c2cccc(C#N)c2)C1=O`, the AC50 [12] was 10.7 µM (active).
With `CC(C)Oc1cccc(-c2cc(C(=O)NN3CCOCC3)c3ccccc3n2)c1` the IC50 [7] was 15.9 µM (inactive), the IC50 [8] was 35.9 µM (inactive) and the IC50 [9] was 35.9 µM (inactive).
For `C[C@H](CO)N1C[C@H](C)[C@@H](CN(C)CC2CCCCC2)Oc2c(NC(=O)c3nc4ccccc4s3)cccc2C1=O`, the AC50 [17] was 1.21 µM (active).
In the case of `COc1ccc(CCNC(=O)CN2C(=O)NC3(CCCCC3C)C2=O)cc1` (stereo not drawn), the IC50 [7] was 4.78 µM (active), the IC50 [8] was 1.31 µM (active) and the IC50 [9] was 35.9 µM (inactive).
In the case of `C[C@@H]1CN([C@H](C)CO)C(=O)c2cccc(N(C)C)c2O[C@H]1CN(C)Cc1ccc(Oc2ccccc2)cc1`, the AC50 [17] was 2.51 µM (active).
With `COc1cccc(S(=O)(=O)N(C)C[C@H]2Oc3cc(C#CCC(C)C)ccc3S(=O)(=O)N([C@H](C)CO)C[C@H]2C)c1` the AC50 [15] was 17.9 µM (active) and the AC50 [18] was 34.5 µM (active).
With `Cc1ccc(S(=O)(=O)Nc2cccc3c2O[C@H](CN(C)Cc2ccc(Cl)c(Cl)c2)[C@H](C)CN([C@H](C)CO)C3=O)cc1` the AC50 [19] was 0.308 µM (active), the AC50 [15] was 1.37 µM (active) and the AC50 [18] was < 0.26 µM (active).
For `O=C(CN1CCCC1)N/N=C/c1c(O)ccc2ccccc12`, the EC50 [10] was 8.38 µM (active), the EC50 [11] was > 350 µM (not active) and the IC50 [20] was 9.17 µM (active).
For `CO[C@@H]1CN(C)C(=O)c2ccc(NC(=O)c3nc4ccccc4s3)cc2OC[C@H](C)N(Cc2ccncc2)C[C@@H]1C`, the AC50 [21] was 1.86 µM (active), the AC50 [22] was 0.985 µM (active) and the AC50 [23] was 0.792 µM (active). The AC50 [24] was 0.725 µM (active).
For `COc1ccc2c3c(n(C)c2c1)[C@@H](CO)N(C(=O)C1CC1)CC31CCN(C(=O)Nc2cccc(F)c2)CC1`, the AC50 [21] was 0.171 µM (active), the AC50 [22] was 0.506 µM (active) and the AC50 [23] was 0.343 µM (active). For the same molecule, the AC50 [24] was 0.441 µM (active).
In the case of `Cc1ccc(S(=O)(=O)N(C)C[C@H]2OCc3ccccc3-c3c(n(C)c4ccccc34)C(=O)N([C@H](C)CO)C[C@@H]2C)cc1`, the AC50 [21] was 1.27 µM (active), the AC50 [22] was 2.36 µM (active) and the AC50 [23] was 1.47 µM (active). For the same molecule, the AC50 [24] was 1.08 µM (active).
